Measured values published in patent publication USH1168H, “Inhibitors of protein kinase C activity as protectors against septic shock and reducers of ARDS” (priority 1991, dated 1993).
Entries after “also recorded” stand apart in the source; their conditions may differ.

Experiments:
[1] = tested on: cAMP dependent kinase; details: to an extent comparable to H7 (20); cited from earlier work
[2] = tested on: myosin light chain kinase; details: to an extent comparable to H7 (20); cited from earlier work
[3] = tested on: cGMP dependent kinase; details: to an extent comparable to H7 (20); cited from earlier work
[4] = tested on: intact endothelium rat aortic rings; test: NE-induced contraction of intact rat aortic rings after 16 h incubation with LPS and/or PKC inhibitors; format: cell-based; details: for EC50: Rattus norvegicus, 16 h, intact endothelium, read-out: EC50 value for NE stimulated contraction (EC50 of the agonist NE)
Procedure: FIG. 1 is a graph showing contraction to cumulative doses of NE by rat aortic rings incubated for 16 hr in combinations of control, LPS (endotoxin or lipopolysaccharide), H7, and N-(2-guanidinoethyl)-5-isoquinolinesulfonamide (HA1004; a negative control for H7) treated media. (Panel A) Responses by rings incubated in medium only (open circles), medium plus H7 (25 μM, closed circles), medium containing LPS (10 ng/ml, open triangles), and medium containing LPS plus H7 (closed triangles). (Panel B) For clarity in presentation, responses by rings incubated in medium only (open circles) and LPS treated medium (open triangles) are reproduced from Panel A. Additional rings were incubated in medium plus HA1004 (25 μM, closed circles), and medium containing LPS plus HA1004 (closed triangles). Six rings were prepared from each rat and one ring allocated into each medium formulation. […] The curves are the best fit of the data by nonlinear least squares to a polynomial model. N=8 rats.
(§1) Tissue preparation and incubation. Male Sprague-Dawley rats (250-350 g, Taconic Farms, Germantown, N.Y.) were used. Rat thoracic aortic rings were prepared and incubated as detailed by McKenna (14). In brief, 4 or 6 rings were prepared from each rat. Care was taken during dissection to maintain the patency of the endothelium. Some aortas were de-endothelialized before sectioning into rings by perfusion with phosphate buffered saline (PBS) containing 1% deoxycholate for 30 sec followed by a PBS and bubble rinse for 5 min. Rings were incubated in DME (Dulbecco's Modified Eagle's medium) supplemented with 1% fetal calf serum, 100 μg/ml streptomycin, and 100 U/ml penicillin. During incubation, the rings were exposed to combinations of LPS (10 or 35 ng/ml), H7 (25 μM), HA1004 (N-(2-guanidinoethyl)-5-isoquinolinesulfonamide) (25 μM), sphingosine (20 μM), or their vehicles. […] Rings used in measures of contractile performance were placed individually in Petri dishes containing 1.2 ml DME and were distributed so that tissue isolated from each aorta was allocated to every combination of treatments within an experiment. […] All tissue isolated from an aorta (six rings) was allocated to a single treatment. The media and rings were rotated gently for 16-18 hr in an incubator at 37° C. under a 95% O2 -5% CO2 atmosphere.
(§2) Measurement of aortic ring contraction. After incubation, rings were mounted in tissue baths, equilibrated, and pre-contracted as previously detailed (14). These procedures required approximately 90 min. Rings were maintained in Krebs Ringer Bicarbonate buffer (KRB, 14). Contractions by six or eight rings were measured simultaneously and recorded on multichannel strip chart recorders. […] Other rings were contracted by withdrawing KRB from the tissue baths and adding increasing volumes of a high KCl KRB (120 mM, made by equimolar substitution of KCl for NaCl) to the baths to yield final KCl concentrations of 10 to 80 mM. All rings were blotted and weighed after experiments were completed.
(§3) Statistics. […] Tests for differences between EC50 values were based on log EC50 values (17). EC50 values were then converted to […] means to allow expression as nanomolar concentrations. Examination of differences among four or six treatment means was by randomized blocks analysis of variance; if significant differences were present, then pairs of means were tested by Student-Newman-Keuls a posteriori tests (18). Paired t-tests were used to assess differences between two treatment means. […] Differences with probabilities of 0.05 or less were accepted as significant. All data are expressed as means±SEM.

[5] = tested on: intact endothelium rat aortic rings; test: KCl-induced contraction of intact rat aortic rings after 16 h incubation with LPS and/or PKC inhibitors; format: cell-based; details: for EC50: Rattus norvegicus, 16 h, intact endothelium, read-out: EC50 value for KCl stimulated contraction (EC50 of the agonist KCl)
Procedure: FIG. 2 is a graph showing contraction to cumulative doses of KCl by rat aortic rings incubated for 16 hr in combinations of control, LPS, H7, and HA1004 treated media. (Panel A) Response by rings incubated in medium only (open circles), medium plus H7 (25 μM, closed circles), medium containing LPS (10 ng/ml, open triangles), and medium containing LPS plus H7 (closed triangles). (Panel B) For clarity in presentation, responses by rings incubated in medium only (open circles) and LPS treated medium (open triangles) are reproduced from Panel A. Additional rings were incubated in medium plus HA1004 (25 μM, closed circles), and medium containing LPS plus HA1004 (closed triangles). Rings were prepared and data is presented as described in FIG. 1. N=6 rats.
as §1, §2, §3

[6] = tested on: de-endothelialized rat aortic rings; test: NE-induced contraction of de-endothelialized rat aortic rings after 16 h incubation with LPS and/or sphingosine; format: cell-based; details: for EC50: Rattus norvegicus, 16 h, de-endothelialized, read-out: EC50 value for NE stimulated contraction (EC50 of the agonist NE)
Procedure: (§4) FIG. 3 is a graph showing contraction to cumulative doses of NE and KCl by rat de-endothelialized aortic rings incubated for 16 hr in combinations of control, LPS, and sphingosine treated media. (Panel A) Contraction to NE by rings incubated in medium only (open circles), medium plus sphingosine (20 μM, closed circles), medium containing LPS (35 ng/ml, open triangles), and medium containing LPS plus sphinogosine (closed triangles). (Panel B) Contraction to KCl by rings incubated and denoted with the same symbols as detailed above. Four rings were prepared from each rat and one ring allocated into each medium formulation to evaluate responses to NE. Rings were similarly prepared to determine responses to KCl. Data is presented as in FIG. 1. N=7 rats apiece for assessment of responses to NE and KCl.
as §1, §2, §3
The amelioration of LPS-induced vascular contractile dysfunction by inhibition of PKC was further explored in de-endothelialized aortic rings incubated with D-sphingosine. The de-endothelialized rings were incubated with 35 ng/ml LPS instead of 10 ng/ml because such rings are not as sensitive to LPS as tissue with an intact endothelium (14). The effective removal of the endothelium was confirmed by the lack of relaxation to acetylcholine by pre-contracted rings during the conditioning procedure.

[7] = stated without test or source; cited from earlier work
[8] = tested on: de-endothelialized rat aortic rings; test: KCl-induced contraction of de-endothelialized rat aortic rings after 16 h incubation with LPS and/or sphingosine; format: cell-based; details: for EC50: Rattus norvegicus, 16 h, de-endothelialized, read-out: EC50 value for KCl stimulated contraction (EC50 of the agonist KCl)
Procedure: as §4, §1, §2
as §3, with “means±SEM. […]” for “means±SEM.”

[9] = tested on: PKC; details: literature (19, 42); cited from earlier work
[10] = LPS 10 ng/ml plus inhibitor 25 μM
[11] = LPS-treated media (10 ng/ml), alone or plus inhibitor 25 μM
[12] = control media (no LPS) plus inhibitor 25 μM
[13] = inhibitor 25 μM by itself, no LPS
[14] = LPS-treated media, alone or plus sphingosine 20 μM
[15] = control media (no LPS) plus sphingosine 20 μM
[16] = sphingosine 20 μM plus LPS 35 ng/ml

N=C(N)NCCNS(=O)(=O)c1cccc2cnccc12 [HA1004, N-(2-guanidinoethyl)-5-isoquinolinesulfonamide]
inhibition of cAMP dependent kinase [1]: inhibits
inhibition of myosin light chain kinase [2]: inhibits
inhibition of cGMP dependent kinase [3]: inhibits
EC50 and Emax (sensitivity and maximum contraction) to NE versus control tissue [4, 10]: significantly depressed sensitivity (Table I) and maximum contraction (FIG. 1B) to NE
EC50 [4, 11]: 0.00276 mM
EC50 [4, 12]: 0.000186 mM
blocking of LPS effects on contraction to NE ([4]; co-incubation, inhibitor 25 μM, LPS 10 ng/ml): ineffective in blocking the effects of LPS on the tissue
contractile function / sensitivity to NE [4, 13]: significant decrease in sensitivity to NE
maximum contraction / ring responses to NE [4, 13]: tended to suppress ring responses to NE; also recorded: apparent, but non-significant, diminution in maximum contraction
protection of maximal contractile performance to KCl ([5]; LPS 10 ng/ml plus HA1004 25 μM): small but significant protection of maximal contractile performance
protection against LPS-induced contractile dysfunction (KCl) [5, 10]: did not protect the tissue against LPS-induced diminished sensitivity to KCl
EC50 [5, 11]: 49 mM
EC50 [5, 12]: 36 ± 3 mM
maximum contraction to KCl [5, 13]: significant increases in maximum contraction; also recorded: augmented contractile responses to KCl
sensitivity to KCl [5, 13]: no enhancement in sensitivity to KCl

CCCCCCCCCCCCC/C=C/[C@@H](O)[C@@H](N)CO [Sphingosine, 4-trans-sphingenine]
EC50 [6, 14]: 124 nM
EC50 [6, 15]: 21 nM
abrogation/prevention of LPS-induced contractile dysfunction ([6]; de-endothelialized rings, sphingosine 20 μM): clearly abrogated the majority of the deleterious effects of LPS on rat aortic tissue contractile function; also recorded: can be prevented
contraction to NE ([6]; sphingosine 20 μM only, no LPS): suppressed contractions to NE and KCl; also recorded: significantly diminished maximum contractions to NE and KCl
protection against LPS suppression of NE-induced contraction [6, 16]: significantly protected
sensitivity to NE versus control rings [6, 16]: remained less than that of control rings
sensitivity to NE versus rings exposed only to LPS ([6]; sphingosine 20 μM plus LPS 35 ng/ml, P<0.05): more sensitive to NE than rings exposed only to LPS
solubility in water [7]: not soluble in water
EC50 [8, 14]: 27 mM
EC50 [8, 15]: 24 ± 2 mM
contraction to KCl ([8]; sphingosine 20 μM only, no LPS): suppressed contractions to NE and KCl; also recorded: significantly diminished maximum contractions to NE and KCl
protection against LPS suppression of KCl-induced contraction [8, 16]: significantly protected
EC50 for KCl versus control rings ([8]; sphingosine 20 μM, whether or not LPS was present): not significantly different from control rings
inhibition of PKC [9]: capable of inhibiting PKC in vivo and in vitro
